# Results reported in patent US20140155389A1, “BICYCLIC INHIBITORS OF ALK” (ABBVIE INC., priority 2011, published 2014).
# Target: T1, ALK (Homo sapiens, UniProt Q9UM73)
# T1 construct: purchased Millipore
# Assay: ALK kinase assay (HTRF)
# Type: biochemical
# Details: apparent Ki from IC50 by Cheng-Prusoff; ALK (Millipore) 3 nM or 4 nM, 50 μM ATP, 1 h at room temperature; read-out: HTRF_ALK Human - Ki
# T1 sequence (Q9UM73 19-1620): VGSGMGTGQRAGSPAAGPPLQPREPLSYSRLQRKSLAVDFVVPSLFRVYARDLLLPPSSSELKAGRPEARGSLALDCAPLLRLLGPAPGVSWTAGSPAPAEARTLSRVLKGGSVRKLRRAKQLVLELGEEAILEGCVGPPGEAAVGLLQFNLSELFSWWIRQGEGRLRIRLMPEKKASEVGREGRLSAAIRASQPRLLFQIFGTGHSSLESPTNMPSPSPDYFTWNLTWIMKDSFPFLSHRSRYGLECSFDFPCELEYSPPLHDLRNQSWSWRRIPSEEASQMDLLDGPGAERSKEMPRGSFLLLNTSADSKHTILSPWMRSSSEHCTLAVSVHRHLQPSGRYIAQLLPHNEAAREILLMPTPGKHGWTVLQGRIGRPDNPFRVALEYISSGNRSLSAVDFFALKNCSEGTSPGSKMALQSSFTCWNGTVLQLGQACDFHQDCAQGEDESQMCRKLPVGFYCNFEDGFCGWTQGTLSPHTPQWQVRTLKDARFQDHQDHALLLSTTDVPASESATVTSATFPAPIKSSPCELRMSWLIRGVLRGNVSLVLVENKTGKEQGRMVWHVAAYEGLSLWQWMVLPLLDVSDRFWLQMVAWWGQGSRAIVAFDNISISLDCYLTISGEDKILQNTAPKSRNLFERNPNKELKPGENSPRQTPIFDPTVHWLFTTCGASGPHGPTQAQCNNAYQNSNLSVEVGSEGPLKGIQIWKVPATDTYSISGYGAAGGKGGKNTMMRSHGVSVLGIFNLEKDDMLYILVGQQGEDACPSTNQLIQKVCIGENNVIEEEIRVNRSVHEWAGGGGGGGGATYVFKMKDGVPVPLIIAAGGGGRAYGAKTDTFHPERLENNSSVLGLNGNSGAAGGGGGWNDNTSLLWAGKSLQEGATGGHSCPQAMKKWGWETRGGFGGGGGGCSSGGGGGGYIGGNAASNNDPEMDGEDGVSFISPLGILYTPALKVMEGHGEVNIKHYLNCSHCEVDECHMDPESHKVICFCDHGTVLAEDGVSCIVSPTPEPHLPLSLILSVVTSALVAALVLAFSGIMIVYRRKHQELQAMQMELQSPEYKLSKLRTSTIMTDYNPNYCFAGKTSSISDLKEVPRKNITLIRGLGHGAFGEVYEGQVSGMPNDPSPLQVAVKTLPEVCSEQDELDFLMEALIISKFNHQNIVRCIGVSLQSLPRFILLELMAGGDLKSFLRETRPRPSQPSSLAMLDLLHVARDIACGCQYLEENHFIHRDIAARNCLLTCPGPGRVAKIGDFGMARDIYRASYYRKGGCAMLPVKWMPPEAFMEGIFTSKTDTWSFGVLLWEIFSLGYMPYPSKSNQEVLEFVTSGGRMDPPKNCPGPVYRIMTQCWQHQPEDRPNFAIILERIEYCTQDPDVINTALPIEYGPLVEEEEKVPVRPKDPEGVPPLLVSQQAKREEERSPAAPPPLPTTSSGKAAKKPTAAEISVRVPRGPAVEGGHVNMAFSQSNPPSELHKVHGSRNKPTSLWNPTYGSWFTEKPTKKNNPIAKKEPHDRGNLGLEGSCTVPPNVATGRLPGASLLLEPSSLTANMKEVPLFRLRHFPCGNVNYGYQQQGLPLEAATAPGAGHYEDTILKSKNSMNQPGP
row,Ki [nM],Compound
1,11,"COc1cc(N2CCNCC2)ccc1Nc1nc(Cc2c(Cl)cccc2Cl)cc2c1C(=O)NCN2 [Example 1, 7-(2,6-dichlorobenzyl)-5-{[2-methoxy-4-(piperazin-1-yl)phenyl]amino}-2,3-dihydropyrido[4,3-d]pyrimidin-4(1H)-one]"
2,1.4,"COc1cc(N2CCNCC2)ccc1Nc1nc(Cc2c(Cl)cccc2Cl)cc2cnnc(O)c12 [Example 2, 7-(2,6-dichlorobenzyl)-5-{[2-methoxy-4-(piperazin-1-yl)phenyl]amino}pyrido[3,4-d]pyridazin-4-ol]"
3,660,"COc1cc(N2CCNCC2)ccc1Nc1cc(Cc2c(Cl)cccc2Cl)nc2c1C(=O)NCCN2 [Example 3, 8-(2,6-dichlorobenzyl)-6-{[2-methoxy-4-(piperazin-1-yl)phenyl]amino}-1,2,3,4-tetrahydro-5H-pyrido[2,3-e][1,4]diazepin-5-one]"
4,940,"O=C1NCCNc2nc(Cc3c(Cl)cccc3Cl)cc(Nc3ccc(N4CCNCC4)cc3)c21 [Example 4, 8-(2,6-dichlorobenzyl)-6-{[4-(piperazin-1-yl)phenyl]amino}-1,2,3,4-tetrahydro-5H-pyrido[2,3-e][1,4]diazepin-5-one]"
5,1,"Oc1nncc2cc(Cc3c(Cl)cccc3Cl)nc(Nc3ccc(N4CCNCC4)cc3)c12 [Example 5, 7-(2,6-dichlorobenzyl)-5-{[4-(piperazin-1-yl)phenyl]amino}pyrido[3,4-d]pyridazin-4-ol]"
6,602,"O=C1NCCNc2cc(Cc3c(Cl)cccc3Cl)nc(Nc3ccc(N4CCNCC4)cc3)c21 [Example 6, 8-(2,6-dichlorobenzyl)-6-{[4-(piperazin-1-yl)phenyl]amino}-1,2,3,4-tetrahydro-5H-pyrido[4,3-e][1,4]diazepin-5-one]"
7,1,"Cc1cc(Nc2nc(Cc3c(Cl)cccc3Cl)cc3cn[nH]c(=O)c23)ccc1N1CCNCC1 [Example 7, 7-(2,6-dichlorobenzyl)-5-{[3-methyl-4-(piperazin-1-yl)phenyl]amino}pyrido[3,4-d]pyridazin-4(3H)-one]"
8,> 470,"COc1cc(N2CCN(C3CCCCC3)CC2)ccc1Nc1nc(Cc2c(Cl)cccc2Cl)cc2cn[nH]c(=O)c12 [Example 8, 5-{[4-(4-cyclohexylpiperazin-1-yl)-2-methoxyphenyl]amino}-7-(2,6-dichlorobenzyl)pyrido[3,4-d]pyridazin-4(3H)-one]"
9,> 470,"COc1cc(N2CCN(C(=O)c3ccccc3)CC2)ccc1Nc1nc(Cc2c(Cl)cccc2Cl)cc2cnnc(O)c12 [Example 9, [4-(4-{[7-(2,6-dichlorobenzyl)-4-hydroxypyrido[3,4-d]pyridazin-5-yl]amino}-3-methoxyphenyl)piperazin-1-yl](phenyl)methanone]"
10,2,"COc1cc(N2CCNCC2)ccc1Nc1nc(Nc2c(Cl)cccc2Cl)cc2cnnc(O)c12 [Example 10, 7-[(2,6-dichlorophenyl)amino]-5-{[2-methoxy-4-(piperazin-1-yl)phenyl]amino}pyrido[3,4-d]pyridazin-4-ol]"
11,> 4700,"COc1cc(N2CCN(S(=O)(=O)C(C)C)CC2)ccc1Nc1nc(Cc2c(Cl)cccc2Cl)cc2cnnc(O)c12 [Example 11, 7-(2,6-dichlorobenzyl)-5-({2-methoxy-4-[4-(propan-2-ylsulfonyl)piperazin-1-yl]phenyl}amino)pyrido[3,4-d]pyridazin-4-ol]"
12,3,"COc1cc(N2CCN(C(=O)CN(C)C)CC2)ccc1Nc1nc(Cc2c(Cl)cccc2Cl)cc2cnnc(O)c12 [Example 12, 1-[4-(4-{[7-(2,6-dichlorobenzyl)-4-hydroxypyrido[3,4-d]pyridazin-5-yl]amino}-3-methoxyphenyl)piperazin-1-yl]-2-(dimethylamino)ethanone]"
13,1,"O=c1[nH]ncc2cc(Cc3c(Cl)cccc3Cl)nc(Nc3ccc(N4CCNCC4)c(Cl)c3)c12 [Example 13, 5-{[3-chloro-4-(piperazin-1-yl)phenyl]amino}-7-(2,6-dichlorobenzyl)pyrido[3,4-d]pyridazin-4(3H)-one]"
14,13,"O=c1[nH]ncc2cc(Cc3c(Cl)cccc3Cl)nc(Nc3ccc(N4CCNCC4)cn3)c12 [Example 14, 7-(2,6-dichlorobenzyl)-5-{[5-(piperazin-1-yl)pyridin-2-yl]amino}pyrido[3,4-d]pyridazin-4(3H)-one]"
15,3,"COc1cc(N2CCN(C3CCN(C)CC3)CC2)ccc1Nc1nc(Cc2c(Cl)cccc2Cl)cc2cn[nH]c(=O)c12 [Example 15, 7-(2,6-dichlorobenzyl)-5-({2-methoxy-4-[4-(1-methylpiperidin-4-yl)piperazin-1-yl]phenyl}amino)pyrido[3,4-d]pyridazin-4(3H)-one]"
16,> 4700,"COc1cc(N2CCN(CCC(C)C)CC2)ccc1Nc1nc(Cc2c(Cl)cccc2Cl)cc2cn[nH]c(=O)c12 [Example 16, 7-(2,6-dichlorobenzyl)-5-({2-methoxy-4-[4-(3-methylbutyl)piperazin-1-yl]phenyl}amino)pyrido[3,4-d]pyridazin-4(3H)-one]"
17,6,"COc1cc(CCN2CCCC2)ccc1Nc1nc(Cc2c(Cl)cccc2Cl)cc2cn[nH]c(=O)c12 [Example 17, 7-(2,6-dichlorobenzyl)-5-({2-methoxy-4-[2-(pyrrolidin-1-yl)ethyl]phenyl}amino)pyrido[3,4-d]pyridazin-4(3H)-one]"

row,Ki [nM],Compound
1,3100,"COc1cc(CC(=O)N2CCCC2)ccc1Nc1nc(Cc2c(Cl)cccc2Cl)cc2cn[nH]c(=O)c12 [Example 18, 7-(2,6-dichlorobenzyl)-5-({2-methoxy-4-[2-oxo-2-(pyrrolidin-1-yl)ethyl]phenyl}amino)pyrido[3,4-d]pyridazin-4(3H)-one]"
2,> 4700,"COc1cc(N2CCN(C(=O)CC(C)C)CC2)ccc1Nc1nc(Cc2c(Cl)cccc2Cl)cc2cn[nH]c(=O)c12 [Example 19, 7-(2,6-dichlorobenzyl)-5-({2-methoxy-4-[4-(3-methylbutanoyl)piperazin-1-yl]phenyl}amino)pyrido[3,4-d]pyridazin-4(3H)-one]"
3,3,"O=c1[nH]ncc2cc(Cc3c(Cl)cccc3Cl)nc(Nc3cc(F)c(N4CCNCC4)cc3F)c12 [Example 20, 7-(2,6-dichlorobenzyl)-5-{[2,5-difluoro-4-(piperazin-1-yl)phenyl]amino}pyrido[3,4-d]pyridazin-4(3H)-one]"
4,368,"Cc1cc(N2CCNCC2)cc(C)c1Nc1nc(Cc2c(Cl)cccc2Cl)cc2cnnc(O)c12 [Example 21, 7-(2,6-dichlorobenzyl)-5-{[2,6-dimethyl-4-(piperazin-1-yl)phenyl]amino}pyrido[3,4-d]pyridazin-4-ol]"
5,2,"COc1cc(N2CCNCC2)ccc1Nc1nc(Nc2ccccc2S(=O)(=O)C(C)C)cc2cn[nH]c(=O)c12 [Example 22, 5-{[2-methoxy-4-(piperazin-1-yl)phenyl]amino}-7-{[2-(propan-2-ylsulfonyl)phenyl]amino}pyrido[3,4-d]pyridazin-4(3H)-one]"
6,21,"COc1cc(N2CCNCC2)ccc1Nc1nc(NC2=N[C@H](C(C)C)CO2)cc2cnnc(O)c12 [Example 23, 5-{[2-methoxy-4-(piperazin-1-yl)phenyl]amino}-7-{[(4R)-4-(propan-2-yl)-4,5-dihydro-1,3-oxazol-2-yl]amino}pyrido[3,4-d]pyridazin-4-ol]"
7,4,"COc1cc(N2CCNCC2)ccc1Nc1nc(Nc2ccccc2Cl)cc2cn[nH]c(=O)c12 [Example 24, 7-[(2-chlorophenyl)amino]-5-{[2-methoxy-4-(piperazin-1-yl)phenyl]amino}pyrido[3,4-d]pyridazin-4(3H)-one]"
8,6,"COc1cc(N2CCNCC2)ccc1Nc1nc(Nc2cc(Cl)ccc2F)cc2cn[nH]c(=O)c12 [Example 25, 7-[(5-chloro-2-fluorophenyl)amino]-5-{[2-methoxy-4-(piperazin-1-yl)phenyl]amino}pyrido[3,4-d]pyridazin-4(3H)-one]"
9,3,"COc1cc(N2CCNCC2)ccc1Nc1nc(Nc2cc(F)ccc2Cl)cc2cn[nH]c(=O)c12 [Example 27, 7-[(2-chloro-5-fluorophenyl)amino]-5-{[2-methoxy-4-(piperazin-1-yl)phenyl]amino}pyrido[3,4-d]pyridazin-4(3H)-one]"
10,4,"COc1cc(N2CCNCC2)ccc1Nc1nc(Nc2cc(Cl)ccc2Cl)cc2cn[nH]c(=O)c12 [Example 28, 7-[(2,5-dichlorophenyl)amino]-5-{[2-methoxy-4-(piperazin-1-yl)phenyl]amino}pyrido[3,4-d]pyridazin-4(3H)-one]"
11,1,"COc1cc(N2CCNCC2)ccc1Nc1nc(Nc2c(F)cccc2Cl)cc2cn[nH]c(=O)c12 [Example 29, 7-[(2-chloro-6-fluorophenyl)amino]-5-{[2-methoxy-4-(piperazin-1-yl)phenyl]amino}pyrido[3,4-d]pyridazin-4(3H)-one]"
12,3,"COc1cc(N2CCN(C)CC2)ccc1Nc1nc(Cc2c(Cl)cccc2Cl)cc2cn[nH]c(=O)c12 [Example 30, 7-(2,6-dichlorobenzyl)-5-{[2-methoxy-4-(4-methylpiperazin-1-yl)phenyl]amino}pyrido[3,4-d]pyridazin-4(3H)-one]"
13,19,"COc1cc(N2CCNCC2)ccc1Nc1nc(Nc2cc(Cl)cc(Cl)c2)cc2cn[nH]c(=O)c12 [Example 31, 7-[(3,5-dichlorophenyl)amino]-5-{[2-methoxy-4-(piperazin-1-yl)phenyl]amino}pyrido[3,4-d]pyridazin-4(3H)-one]"
14,2,"COc1cc(N2CCNCC2)ccc1Nc1nc(Nc2c(F)cccc2F)cc2cn[nH]c(=O)c12 [Example 32, 7-[(2,6-difluorophenyl)amino]-5-{[2-methoxy-4-(piperazin-1-yl)phenyl]amino}pyrido[3,4-d]pyridazin-4(3H)-one]"
15,0.2,"COc1cc(N2CCNCC2)ccc1Nc1nc(Nc2c(Cl)cncc2Cl)cc2cn[nH]c(=O)c12 [Example 33, 7-[(3,5-dichloropyridin-4-yl)amino]-5-{[2-methoxy-4-(piperazin-1-yl)phenyl]amino}pyrido[3,4-d]pyridazin-4(3H)-one]"
16,4,"COc1cc(N2CCNCC2)ccc1Nc1nc(Nc2ccc(Cl)cc2Cl)cc2cnnc(O)c12 [Example 34, 7-[(2,4-dichlorophenyl)amino]-5-{[2-methoxy-4-(piperazin-1-yl)phenyl]amino}pyrido[3,4-d]pyridazin-4-ol]"
